For assay [1], the target named is Mitogen-activated protein kinase 10 (Homo sapiens, UniProt P53779). The experiment in a line: Inhibition of JNK3 (unknown origin) using ATF2 as substrate incubated for 40 mins in presence of [gamma33P]ATP by scintillation counting analysis.
For the next assay, the system named is Cortical neurone. Nature of the assay: cells. Particulars: Rattus norvegicus, 120 h, read-out: Activity.
The target of assay [2] is Mitogen-activated protein kinase 14 (Homo sapiens, UniProt Q16539). The experiment in a line: Inhibition of p38alpha (unknown origin) incubated for 20 mins in presence of 33P-ATP.
Mitogen-activated protein kinase 14, sequence (Q16539 whole entry): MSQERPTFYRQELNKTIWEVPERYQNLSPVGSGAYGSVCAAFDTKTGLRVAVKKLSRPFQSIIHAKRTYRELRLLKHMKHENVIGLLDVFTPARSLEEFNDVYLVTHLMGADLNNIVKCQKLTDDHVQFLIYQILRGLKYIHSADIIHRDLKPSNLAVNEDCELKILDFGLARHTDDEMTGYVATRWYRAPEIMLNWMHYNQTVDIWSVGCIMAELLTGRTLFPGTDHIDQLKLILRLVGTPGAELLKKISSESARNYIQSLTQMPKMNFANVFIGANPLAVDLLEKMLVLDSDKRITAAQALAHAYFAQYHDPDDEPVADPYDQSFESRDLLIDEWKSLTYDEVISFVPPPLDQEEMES
The target in assay [3] is Mitogen-activated protein kinase 9 (Homo sapiens, UniProt P45984). The experiment in a line: Inhibition of JNK2 (unknown origin) incubated for 20 mins in presence of 33P-ATP.
Mitogen-activated protein kinase 9, sequence (P45984 whole entry): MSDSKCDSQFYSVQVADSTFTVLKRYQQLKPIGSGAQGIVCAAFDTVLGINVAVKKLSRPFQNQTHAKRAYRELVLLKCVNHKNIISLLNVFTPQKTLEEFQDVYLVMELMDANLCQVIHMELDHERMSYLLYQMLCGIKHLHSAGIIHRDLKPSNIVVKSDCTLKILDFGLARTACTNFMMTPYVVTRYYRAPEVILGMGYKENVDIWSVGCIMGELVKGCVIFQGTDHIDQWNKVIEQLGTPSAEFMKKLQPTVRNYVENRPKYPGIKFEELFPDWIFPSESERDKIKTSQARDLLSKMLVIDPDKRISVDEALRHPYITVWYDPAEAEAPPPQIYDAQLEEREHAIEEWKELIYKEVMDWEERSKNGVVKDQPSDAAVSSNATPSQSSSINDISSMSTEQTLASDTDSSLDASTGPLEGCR
In assay [4] the target is Glycogen synthase kinase-3 beta (Homo sapiens, UniProt P49841). The experiment in a line: Inhibition of GSK3beta (unknown origin) incubated for 20 mins in presence of 33P-ATP.
Glycogen synthase kinase-3 beta, sequence (P49841 whole entry): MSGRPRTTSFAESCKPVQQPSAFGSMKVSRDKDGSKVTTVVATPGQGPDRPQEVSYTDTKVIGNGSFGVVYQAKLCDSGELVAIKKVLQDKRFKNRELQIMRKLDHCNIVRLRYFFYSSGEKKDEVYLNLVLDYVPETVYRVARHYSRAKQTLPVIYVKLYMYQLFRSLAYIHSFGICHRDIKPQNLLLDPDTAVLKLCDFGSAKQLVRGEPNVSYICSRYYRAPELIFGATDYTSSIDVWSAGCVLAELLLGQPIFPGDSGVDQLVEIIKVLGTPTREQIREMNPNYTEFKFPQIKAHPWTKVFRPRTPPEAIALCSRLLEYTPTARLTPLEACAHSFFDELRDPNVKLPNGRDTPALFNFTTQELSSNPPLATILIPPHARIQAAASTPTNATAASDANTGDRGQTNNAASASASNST
For assay [5], the target named is Mitogen-activated protein kinase 8 (Homo sapiens, UniProt P45983). The experiment in a line: Inhibition of JNK1 (unknown origin) incubated for 20 mins in presence of 33P-ATP.
Mitogen-activated protein kinase 8, sequence (P45983 whole entry): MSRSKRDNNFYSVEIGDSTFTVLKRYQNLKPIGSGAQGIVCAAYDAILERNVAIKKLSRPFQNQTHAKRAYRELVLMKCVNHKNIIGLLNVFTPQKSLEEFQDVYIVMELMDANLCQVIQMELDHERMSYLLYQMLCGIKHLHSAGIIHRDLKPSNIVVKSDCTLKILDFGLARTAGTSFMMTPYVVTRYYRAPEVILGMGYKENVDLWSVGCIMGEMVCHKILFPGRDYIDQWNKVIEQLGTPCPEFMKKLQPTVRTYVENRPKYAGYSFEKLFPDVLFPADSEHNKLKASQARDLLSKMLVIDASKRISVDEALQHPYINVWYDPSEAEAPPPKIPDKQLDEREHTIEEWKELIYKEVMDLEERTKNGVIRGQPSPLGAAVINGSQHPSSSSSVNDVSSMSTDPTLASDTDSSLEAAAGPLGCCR

Mitogen-activated protein kinase 10, sequence (P53779 whole entry): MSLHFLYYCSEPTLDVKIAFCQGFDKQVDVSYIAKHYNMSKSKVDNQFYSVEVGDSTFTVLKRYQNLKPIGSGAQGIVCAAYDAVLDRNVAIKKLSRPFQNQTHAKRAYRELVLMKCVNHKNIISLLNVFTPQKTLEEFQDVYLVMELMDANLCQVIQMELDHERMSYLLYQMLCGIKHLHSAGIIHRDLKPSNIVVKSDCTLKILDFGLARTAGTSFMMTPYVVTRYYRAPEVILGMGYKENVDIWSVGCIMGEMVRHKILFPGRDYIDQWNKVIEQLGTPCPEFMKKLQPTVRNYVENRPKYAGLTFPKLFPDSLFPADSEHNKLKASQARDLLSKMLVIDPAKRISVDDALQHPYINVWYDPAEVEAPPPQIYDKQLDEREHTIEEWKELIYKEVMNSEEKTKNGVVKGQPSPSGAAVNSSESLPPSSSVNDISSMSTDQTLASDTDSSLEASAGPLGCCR
Description for Cortical neurone: Neuroprotective activity against Abeta42-induced neuronal apoptosis in Sprague-Dawley rat primary cortical neuron cells assessed as cell viability at 10 uM preincubated for 90 mins followed by Abeta42 addition for 24 hrs and measured on day 5 by MTT assay (Rvb = 52%)

For `CCOC(=O)C1Cc2nc(-c3ccc4c(c3)OCO4)n(-c3ccnc(N[C@H]4CCCN(C(=O)C5CC5)C4)n3)c2C1` (some centres undefined), in assay [1], the IC50 was determined as 10.5 nM.
With `CCOC(=O)C1Cc2nc(-c3ccc(Cl)c(Cl)c3)n(-c3ccnc(N[C@H]4CCN(C(=O)C5CC5)C4)n3)c2C1` (some centres undefined), the IC50 in assay [1] was found to be 28.2 nM.
On the same count and under the same terms, with `CCOC(=O)C1Cc2nc(-c3ccc4c(c3)OCO4)n(-c3ccnc(N[C@H]4CCN(C(=O)C5CC5)C4)n3)c2C1` (some centres undefined) the figure was 243 nM; with `NC(=O)C1Cc2nc(-c3ccc4c(c3)OCO4)n(-c3ccnc(N[C@@H]4CCN(C(=O)C5CC5)C4)n3)c2C1` (some centres undefined), 103 nM.
The same measure, in the same setting: with `CNC(=O)C1Cc2nc(-c3ccc(Cl)c(Cl)c3)n(-c3ccnc(N[C@H]4CCN(C(=O)C5CC5)C4)n3)c2C1` (some centres undefined) the figure was 10.2 nM; with `CNC(=O)C1Cc2nc(-c3ccc4c(c3)OCO4)n(-c3ccnc(N[C@@H]4CCN(C(=O)C5CC5)C4)n3)c2C1` (some centres undefined), 93.9 nM.
On the same count and under the same terms, with `NC(=O)C1Cc2nc(-c3ccc4c(c3)CCO4)n(-c3ccnc(N[C@@H]4CCCN(C(=O)C5CC5)C4)n3)c2C1` (some centres undefined) the figure was 8.92 nM; with `CNC(=O)C1Cc2nc(-c3ccc(Cl)c(Cl)c3)n(-c3ccnc(N[C@@H]4CCN(C(=O)C5CC5)C4)n3)c2C1` (some centres undefined), 9.36 nM; with `CNC(=O)C1Cc2nc(-c3ccc(F)c(C(F)(F)F)c3)n(-c3ccnc(N[C@@H]4CCN(C(=O)C5CC5)C4)n3)c2C1` (some centres undefined), 300 nM.
Consider `CCOC(=O)C1Cc2nc(-c3ccc(F)c(C(F)(F)F)c3)n(-c3ccnc(N[C@@H]4CCCN(C(=O)C5CC5)C4)n3)c2C1` (some centres undefined), for which the IC50 in assay [1] was determined as 65.4 nM.
Still for that read-out and setting: under `NC(=O)C1Cc2nc(-c3ccc4ccccc4c3)n(-c3ccnc(N[C@H]4CCN(C(=O)C5CC5)C4)n3)c2C1` (some centres undefined) stands 14.8 nM; under `NC(=O)C1Cc2nc(-c3ccc4c(c3)OCO4)n(-c3ccnc(N[C@@H]4CCCN(C(=O)C5CC5)C4)n3)c2C1` (some centres undefined), 36.1 nM.
The same measure, in the same setting: with `CCOC(=O)C1Cc2nc(-c3ccc4c(c3)OCO4)n(-c3ccnc(N[C@@H]4CCN(C(=O)C5CC5)C4)n3)c2C1` (some centres undefined) the figure was 49.9 nM.
As to `NC(=O)C1Cc2nc(-c3ccc4c(c3)CCO4)n(-c3ccnc(N[C@H]4CCCN(C(=O)C5CC5)C4)n3)c2C1` (some centres undefined), the IC50 in assay [1] was 9.06 nM. Also, in the assay with Cortical neurone, the viability at 10 µM is 53%.
For the compound `CNC(=O)C1Cc2nc(-c3ccc(Cl)c(Cl)c3)n(-c3ccnc(N[C@@H]4CCCN(C(=O)C5CC5)C4)n3)c2C1` (some centres undefined), the IC50 in assay [1] worked out at 4.83 nM.
Still for that read-out and setting: under `NC(=O)C1Cc2nc(-c3ccc(F)c(C(F)(F)F)c3)n(-c3ccnc(N[C@@H]4CCCN(C(=O)C5CC5)C4)n3)c2C1` (some centres undefined) stands 104 nM; under `NC(=O)C1Cc2nc(-c3ccc4ccccc4c3)n(-c3ccnc(N[C@@H]4CCCN(C(=O)C5CC5)C4)n3)c2C1` (some centres undefined), 1.72 nM.
On the same count and under the same terms, under `CCOC(=O)C1Cc2nc(-c3ccc4c(c3)CCO4)n(-c3ccnc(N[C@@H]4CCCN(C(=O)C5CC5)C4)n3)c2C1` (some centres undefined) stands 10.4 nM; under `CCOC(=O)C1Cc2nc(-c3ccc4c(c3)CCO4)n(-c3ccnc(N[C@H]4CCCN(C(=O)C5CC5)C4)n3)c2C1` (some centres undefined), 31.4 nM; under `CCOC(=O)C1Cc2nc(-c3ccc4c(c3)CCO4)n(-c3ccnc(N[C@H]4CCN(C(=O)C5CC5)C4)n3)c2C1` (some centres undefined), 158 nM.
For the compound `NC(=O)C1Cc2nc(-c3ccc4c(c3)CCO4)n(-c3ccnc(N[C@@H]4CCN(C(=O)C5CC5)C4)n3)c2C1` (some centres undefined), the IC50 in assay [1] was found to be 63 nM.
Same read-out and setting: with `CCOC(=O)C1Cc2nc(-c3ccc4ccccc4c3)n(-c3ccnc(N[C@H]4CCN(C(=O)C5CC5)C4)n3)c2C1` (some centres undefined) the figure was 23.4 nM.
As to `CCOC(=O)C1Cc2nc(-c3ccc4ccccc4c3)n(-c3ccnc(N[C@@H]4CCCN(C(=O)C5CC5)C4)n3)c2C1` (some centres undefined), the IC50 in assay [1] was determined as 0.779 nM; in assay [2], 84.7 nM; in assay [3] it was 11.9 nM; in assay [4], 1250 nM; in assay [5] it was 56.1 nM.
On to `CNC(=O)C1Cc2nc(-c3ccc(F)c(C(F)(F)F)c3)n(-c3ccnc(N[C@H]4CCN(C(=O)C5CC5)C4)n3)c2C1` (some centres undefined), for which the IC50 in assay [1] was found to be 601 nM.
The same measure, in the same setting: with `NC(=O)C1Cc2nc(-c3ccc(Cl)c(Cl)c3)n(-c3ccnc(N[C@@H]4CCN(C(=O)C5CC5)C4)n3)c2C1` (some centres undefined) the figure was 16.4 nM; with `NC(=O)C1Cc2nc(-c3ccc(F)c(C(F)(F)F)c3)n(-c3ccnc(N[C@H]4CCCN(C(=O)C5CC5)C4)n3)c2C1` (some centres undefined), 6.39 nM.
Turning to `CCOC(=O)C1Cc2nc(-c3ccc(F)c(C(F)(F)F)c3)n(-c3ccnc(N[C@H]4CCCN(C(=O)C5CC5)C4)n3)c2C1` (some centres undefined), the concentration for half-maximal inhibition (IC50) in assay [1] was 52.8 nM.
On the same count and under the same terms, with `CCOC(=O)C1Cc2nc(-c3ccc4c(c3)OCO4)n(-c3ccnc(N[C@@H]4CCCN(C(=O)C5CC5)C4)n3)c2C1` (some centres undefined) the figure was 1.2 nM; with `NC(=O)C1Cc2nc(-c3ccc(F)c(C(F)(F)F)c3)n(-c3ccnc(N[C@H]4CCN(C(=O)C5CC5)C4)n3)c2C1` (some centres undefined), 183 nM; with `CNC(=O)C1Cc2nc(-c3ccc(F)c(C(F)(F)F)c3)n(-c3ccnc(N[C@@H]4CCCN(C(=O)C5CC5)C4)n3)c2C1` (some centres undefined), 700 nM.
Take `CCOC(=O)C1Cc2nc(-c3ccc(Cl)c(Cl)c3)n(-c3ccnc(N[C@@H]4CCCN(C(=O)C5CC5)C4)n3)c2C1` (some centres undefined): the IC50 turned out to be 0.607 nM in assay [1]; 53.2 nM in assay [2]; 8.56 nM in assay [3]; 195 nM in assay [4]; 82.8 nM in assay [5].
As for `NC(=O)C1Cc2nc(-c3ccc4c(c3)OCO4)n(-c3ccnc(N[C@H]4CCN(C(=O)C5CC5)C4)n3)c2C1` (some centres undefined), the IC50 in assay [1] turned out to be 135 nM.
In the case of `NC(=O)C1Cc2nc(-c3ccc4c(c3)CCO4)n(-c3ccnc(N[C@H]4CCN(C(=O)C5CC5)C4)n3)c2C1` (some centres undefined), in assay [1], the IC50 amounted to 87.3 nM.
Same read-out and setting: under `CCOC(=O)C1Cc2nc(-c3ccc(Cl)c(Cl)c3)n(-c3ccnc(N[C@@H]4CCN(C(=O)C5CC5)C4)n3)c2C1` (some centres undefined) stands 4.33 nM.
`NC(=O)C1Cc2nc(-c3ccc4c(c3)OCO4)n(-c3ccnc(N[C@H]4CCCN(C(=O)C5CC5)C4)n3)c2C1` (some centres undefined): the IC50 in assay [1] came out at 10 nM. Further, the viability at 10 µM in the assay on Cortical neurone stood at 55.1%.
`CCOC(=O)C1Cc2nc(-c3ccc4ccccc4c3)n(-c3ccnc(N[C@@H]4CCN(C(=O)C5CC5)C4)n3)c2C1` (some centres undefined): the half-maximal inhibitory concentration (IC50) in assay [1] was 6.82 nM.
On the same count and under the same terms, with `NC(=O)C1Cc2nc(-c3ccc(F)c(C(F)(F)F)c3)n(-c3ccnc(N[C@@H]4CCN(C(=O)C5CC5)C4)n3)c2C1` (some centres undefined) the figure was 300 nM; with `CNC(=O)C1Cc2nc(-c3ccc4c(c3)OCO4)n(-c3ccnc(N[C@H]4CCN(C(=O)C5CC5)C4)n3)c2C1` (some centres undefined), 180 nM; with `CCOC(=O)C1Cc2nc(-c3ccc(F)c(C(F)(F)F)c3)n(-c3ccnc(N[C@H]4CCN(C(=O)C5CC5)C4)n3)c2C1` (some centres undefined), 453 nM.
On the same count and under the same terms, with `NC(=O)C1Cc2nc(-c3ccc4ccccc4c3)n(-c3ccnc(N[C@@H]4CCN(C(=O)C5CC5)C4)n3)c2C1` (some centres undefined) the figure was 24.9 nM; with `CCOC(=O)C1Cc2nc(-c3ccc(F)c(C(F)(F)F)c3)n(-c3ccnc(N[C@@H]4CCN(C(=O)C5CC5)C4)n3)c2C1` (some centres undefined), 63.1 nM; with `CNC(=O)C1Cc2nc(-c3ccc(F)c(C(F)(F)F)c3)n(-c3ccnc(N[C@H]4CCCN(C(=O)C5CC5)C4)n3)c2C1` (some centres undefined), 30.6 nM.
Same read-out and setting: under `CCOC(=O)C1Cc2nc(-c3ccc4c(c3)CCO4)n(-c3ccnc(N[C@@H]4CCN(C(=O)C5CC5)C4)n3)c2C1` (some centres undefined) stands 21.5 nM; under `NC(=O)C1Cc2nc(-c3ccc(Cl)c(Cl)c3)n(-c3ccnc(N[C@H]4CCN(C(=O)C5CC5)C4)n3)c2C1` (some centres undefined), 15.4 nM.

Source of the values: ChEMBL document CHEMBL5385856, “Novel 1,4,5,6-tetrahydrocyclopenta[d]imidazole-5-carboxamide-based JNK3 inhibitors: Design, synthesis, molecular docking, and therapeutic potential in neurodegenerative diseases” (Eur J Med Chem, 2023).
